These results are taken from patent publication US4760136A, “Chartreusin derivatives and salts thereof” (Ishihara Sangyo Kaisha, Ltd., priority 1984, dated 1988).

Data set [1] concerns ddY mice. Kind of data set: Acute toxicity, intravenous (once), ddY mice. In kind it is in vivo. As to conditions: formulated per Preparation Example. An excerpt: In Table 7 are shown acute toxicity values (LD50, mg/kg) in ddY mice in the case of intravenously administering (once) each of the compounds of this invention in the form of preparations shown in the Preparation Examples shown in Table 7.

The subject of data set [2] is P-388 leukemia cells. Kind of data set: Antitumor activity: P-388 leukemia cells inoculated intraperitoneally, drug administered intravenously, BDF1 mice. In kind it is in vivo. As to conditions: for response vs control in vivo at 80 mg/kg: dose f: 80 mg/kg × 3, i.v. on days 1, 5 and 9; for T/C (%) of MST / response vs control in vivo at 40 mg/kg: dose c: 40 mg/kg × 3, i.v. on days 1, 5 and 9. Put shortly:
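Drug dosing was intravenous on the first, fifth and ninth days after intraperitoneal inoculation of P-388 leukemia cells (1×10^6 per mouse) into BDF1 mice. Vehicles were physiological saline alone, or saline with small amounts of sodium carboxymethyl cellulose or Tween-80.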

Data set [3] has as its system cancer. As to conditions: different sites; cited from earlier work.
The subject of data set [4] is P-388 leukemia. To be noted: i.p. inoculation, i.p. administration; cited from earlier work.
The subject of data set [5] is B-16 melanoma. As to conditions: i.p. inoculation, i.p. administration; cited from earlier work.
Data set [6] deals with L-1210 leukemia. To be noted: i.p. inoculation, i.p. administration; cited from earlier work.
[7] abbreviates: Mus musculus, P388, iv, BDF1 mice, P-388 i.p., read-out: T/C (%) of MST.

Where a name gives a salt, the structure may show the parent alone. A value given as a limit tells only on which side of the number the result lay.

One may read the LD50 as the dose expected to kill half of the subjects tested.

For `COC1C(O)C(C)OC(OC2C(Oc3cccc4c(OC(=O)C(C)CNC(=O)C(F)(F)F)c5c(=O)oc6ccc(C)c7c(=O)oc(c34)c5c67)OC(C)C3OC(c4cccc(F)c4)OC32)C1O` (stereo not drawn) [Compound No. 37, 6-O-(N-trifluoroacetyl-β-amino-isobutyryl)-3',4'-O-(m-fluorobenzylidene)-chartreusin], in data set [1], the LD50 is given as ≥ 30 mg/kg. Also, the response vs control in vivo at 10 mg/kg in data set [2] (Mus musculus, P388, iv, dose a: 10 mg/kg × 3, i.v. on days 1, 5 and 9, BDF1 mice, P-388 i.p., read-out: T/C (%) of MST) was determined as 146%.
With `COC1C(O)C(C)OC(OC2C(Oc3cccc4c(OC(=O)CCNC=O)c5c(=O)oc6ccc(C)c7c(=O)oc(c34)c5c67)OC(C)C3OC(c4ccccc4)OC32)C1O` (stereo not shown) [Compound No. 40], in data set [1], the LD50 is on record as ≥ 100 mg/kg. The response vs control in vivo at 80 mg/kg in data set [2] (setting [7]) came to 205%.
As to `COC1C(O)C(C)OC(OC2C(Oc3cccc4c(OC(=O)CCNC(=O)C(F)(F)F)c5c(=O)oc6ccc(C)c7c(=O)oc(c34)c5c67)OC(C)C3OC(c4ccccc4)OC32)C1O` (stereo not shown) [Compound No. 41], the LD50 in data set [1] is on record as ≥ 100 mg/kg. Also, the “T/C (%) of MST” value in data set [2] (BDF1 mice, P-388 i.p.) is on record as 157%.
As to `COC1C(O)C(C)OC(OC2C(Oc3cccc4c(OC(=O)CCCNC(=O)C(F)(F)F)c5c(=O)oc6ccc(C)c7c(=O)oc(c34)c5c67)OC(C)C3OC(c4ccc(F)cc4)OC32)C1O` (stereo not shown) [Compound No. 57], in data set [1], the LD50 was ≥ 80 mg/kg. In data set [2] (setting [7]), the response vs control in vivo at 40 mg/kg is 162% and the response vs control in vivo at 80 mg/kg came out at 208%.
For `CO[C@H]1[C@@H](O)[C@@H](C)O[C@H](O[C@H]2[C@H](Oc3cccc4c(O)c5c(=O)oc6ccc(C)c7c(=O)oc(c34)c5c67)O[C@H](C)[C@H](O)[C@@H]2O)[C@@H]1O` [chartreusin], the “antitumorous activity when site of cancer inoculation and site of administration were different” value in data set [3] was “not effective at all”. For the same compound, the “antitumorous activity against P-388 leukemia” value in data set [4] is given as “effective”. The “antitumorous activity against B-16 melanoma” value in data set [5] is reported as “effective”. The “antitumorous activity against L-1210 leukemia” value in data set [6] is given as “effective”. Also, the “T/C (%)” value in data set [2] (50 mg/kg/day x 3, suspension in 0.2M Na2HPO4 / N,N-dimethylacetamide (4:1), comparison) is reported as 105%.
Regarding `COC1C(O)C(C)OC(OC2C(Oc3cccc4c(OC(=O)CCNC(=O)c5ccccc5)c5c(=O)oc6ccc(C)c7c(=O)oc(c34)c5c67)OC(C)C3OC(c4ccccc4)OC32)C1O` (stereo not shown) [compound 65], the LD50 in data set [1] was ≥ 60 mg/kg. For the same compound, the response vs control in vivo at 80 mg/kg in data set [2] (setting [7]) was determined as 175%.
Taken in the same sequence, the figures for `COC1C(O)C(C)OC(OC2C(Oc3cccc4c(OC(=O)CC(C)NC(=O)C(F)(F)F)c5c(=O)oc6ccc(C)c7c(=O)oc(c34)c5c67)OC(C)C3OC(c4ccccc4)OC32)C1O` (stereo not shown) [compound 66] were ≥ 60 mg/kg and 171%.
The corresponding values for `COC1C(O)C(C)OC(OC2C(Oc3cccc4c(OC(=O)CN(C)C(=O)C(F)(F)F)c5c(=O)oc6ccc(C)c7c(=O)oc(c34)c5c67)OC(C)C3OC(c4ccccc4)OC32)C1O` (stereo not shown) [compound 67] are ≥ 60 mg/kg and 188%.
For the compound `COC1C(O)C(C)OC(OC2C(Oc3cccc4c(OC(=O)C(C)CNC(=O)C(F)(F)F)c5c(=O)oc6ccc(C)c7c(=O)oc(c34)c5c67)OC(C)C3OC(c4cccc(F)c4)OC32)C1O` (stereo not shown) [compound 68], the 50% lethal dose (LD50) in data set [1] was ≥ 80 mg/kg. In addition, in data set [2] (setting [7]), the response vs control in vivo at 40 mg/kg is 148% and the response vs control in vivo at 80 mg/kg came out at 210%.
Take `COC1C(O)C(C)OC(OC2C(Oc3cccc4c(OC(=O)CCN)c5c(=O)oc6ccc(C)c7c(=O)oc(c34)c5c67)OC(C)C3OC(c4ccccc4)OC32)C1O` (stereo not drawn) [compound 80, 6-O-(β-alanyl)-3',4'-O-benzylidene-chartreusin hydrochloride]: in data set [1] (hydrochloride), the LD50 is on record as ≥ 80 mg/kg. Moreover, in data set [2] (setting [7]), the response vs control in vivo at 80 mg/kg is 184%. Also, the “T/C (%) of MST” value in data set [2] (BDF1 mice, P-388 i.p., hydrochloride) stood at 139%.
As for `COC1C(O)C(C)OC(OC2C(Oc3cccc4c(OC(=O)CCNC=O)c5c(=O)oc6ccc(C)c7c(=O)oc(c34)c5c67)OC(C)C3OC(c4ccsc4)OC32)C1O` (stereo not shown) [compound 89], in data set [1], the LD50 was ≥ 80 mg/kg. Also, the response vs control in vivo at 80 mg/kg in data set [2] (setting [7]) is 173%.
Turning to `COC1C(O)C(C)OC(OC2C(Oc3cccc4c(OC(=O)CCCCCNC(=O)OCc5ccccc5)c5c(=O)oc6ccc(C)c7c(=O)oc(c34)c5c67)OC(C)C3OC(c4ccccc4)OC32)C1O` (stereo not shown) [compound 110], in data set [1], the median lethal dose (LD50) is given as ≥ 60 mg/kg. The response vs control in vivo at 40 mg/kg in data set [2] (setting [7]) came out at 154%.
As to `COC1C(O)C(C)OC(OC2C(Oc3cccc4c(OC(=O)CCNC(=O)c5ccccc5)c5c(=O)oc6ccc(C)c7c(=O)oc(c34)c5c67)OC(C)C3OC(c4ccc(Br)cc4)OC32)C1O` (stereo not shown) [compound 124], in data set [1], the median lethal dose (LD50) is ≥ 80 mg/kg. Also, the response vs control in vivo at 80 mg/kg in data set [2] (setting [7]) was 151%.
In the case of `CCCC(=O)Oc1c2cccc(OC3OC(C)C4OC(c5ccccc5)OC4C3OC3OC(C)C(O)C(OC)C3O)c2c2oc(=O)c3c(C)ccc4oc(=O)c1c2c43` (stereo not shown) [compound 212, 6-O-(n-butyryl)-3',4'-O-benzylidene-chartreusin], the median lethal dose (LD50) in data set [1] was ≥ 80 mg/kg. Moreover, the response vs control in vivo at 80 mg/kg in data set [2] (setting [7]) is 153%.
The corresponding values for `C=CCCC(=O)Oc1c2cccc(O[C@@H]3O[C@H](C)[C@@H]4OC(c5ccccc5)O[C@@H]4[C@H]3O[C@H]3O[C@H](C)[C@H](O)[C@H](OC)[C@H]3O)c2c2oc(=O)c3c(C)ccc4oc(=O)c1c2c43` (stereo partly shown) [compound 213] are ≥ 80 mg/kg and 160%.
For the compound `COC1C(O)C(C)OC(OC2C(Oc3cccc4c(OC(=O)CC(C)C)c5c(=O)oc6ccc(C)c7c(=O)oc(c34)c5c67)OC(C)C3OC(c4ccccc4)OC32)C1O` (stereo not shown) [compound 227], the LD50 in data set [1] is reported as ≥ 80 mg/kg. Moreover, the response vs control in vivo at 80 mg/kg in data set [2] (setting [7]) came to 143%.
The corresponding values for `COC1C(O)C(C)OC(OC2C(Oc3cccc4c(OC(=O)C5CC5)c5c(=O)oc6ccc(C)c7c(=O)oc(c34)c5c67)OC(C)C3OC(c4ccccc4)OC32)C1O` (stereo not shown) [compound 230] are ≥ 80 mg/kg and 144%.
